From patent US12466822B2, “Heterocyclic compounds as immunomodulators” (Incyte Corporation, priority 2016, dated 2025)

Target: T1, PD-1/PD-L1 protein/protein interaction (recombinant human PD-L1 protein (19-238), recombinant human PD-1 protein (25-167)) (Homo sapiens, UniProt Q9NZQ7)
T1 construct: Recombinant human PD-L1 protein (19-238) with a His-tag at the C-terminus; purchased AcroBiosystems PD1-H5229 (PD-L1-His); PD1-H5257 (PD-1-Fc)
Assay: PD-1/PD-L1 Homogeneous Time-Resolved Fluorescence (HTRF) Binding Assay
Details: 25° C., PBS buffer (pH 7.4), 40 minutes preincubation with inhibitors
Procedure: The assays were conducted in a standard black 384-well polystyrene plate with a final volume of 20 μL. Inhibitors were first serially diluted in DMSO and then added to the plate wells before the addition of other reaction components. The final concentration of DMSO in the assay was 1%. The assays were carried out at 25° C. in the PBS buffer (pH 7.4) with 0.05% Tween-20 and 0.1% BSA. Recombinant human PD-L1 protein (19-238) with a His-tag at the C-terminus was purchased from AcroBiosystems (PD1-H5229). Recombinant human PD-1 protein (25-167) with Fc tag at the C-terminus was also purchased from AcroBiosystems (PD1-H5257). PD-L1 and PD-1 proteins were diluted in the assay buffer and 10 μL was added to the plate well. Plates were centrifuged and proteins were preincubated with inhibitors for 40 minutes. The incubation was followed by the addition of 10 μL of HTRF detection buffer supplemented with Europium cryptate-labeled anti-human IgG (PerkinElmer-AD0212) specific for Fc and anti-His antibody conjugated to SureLight®-Allophycocyanin (APC, PerkinElmer-AD0059H). After centrifugation, the plate was incubated at 25° C. for 60 min. before reading on a PHERAstar FS plate reader (665 nm/620 nm ratio). Final concentrations in the assay were […], 10 nM PD-L1, 1 nM europium anti-human IgG and 20 nM anti-His-Allophycocyanin. IC50 determination was performed by fitting the curve of percent control activity versus the log of the inhibitor concentration using the GraphPad Prism 5.0 software.

T1 sequence (Q9NZQ7 19-238): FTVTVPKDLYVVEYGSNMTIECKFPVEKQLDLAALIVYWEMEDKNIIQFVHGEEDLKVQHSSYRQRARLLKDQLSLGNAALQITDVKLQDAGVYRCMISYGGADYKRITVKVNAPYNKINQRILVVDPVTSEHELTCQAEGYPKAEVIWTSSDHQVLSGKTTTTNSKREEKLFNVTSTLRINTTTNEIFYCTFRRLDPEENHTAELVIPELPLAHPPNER

IC50, ≤ 10 nM:
Cc1c(Nc2nccc3cc(CN4CC[C@H](O)C4)cnc23)cccc1-c1cccc(Nc2nccc3cc(CN4CC[C@H](C(=O)O)C4)cnc23)c1C [Example 13, (S)-1-((8-((3′-((3-(((S)-3-hydroxypyrrolidin-1-yl)methyl)-1,7-naphthyridin-8-yl)amino)-2,2′-dimethyl-[1,1′-biphenyl]-3-yl)amino)-1,7-naphthyridin-3-yl)methyl)pyrrolidine-3-carboxylic acid]
Cc1c(NC(=O)c2nc3c(n2C)CCN(C)C3)cccc1-c1cccc(Nc2nccc3cc(CN4CC(C(=O)O)C4)cnc23)c1Cl [Example 14, 1-((8-(2-chloro-3′-(1,5-dimethyl-4,5,6,7-tetrahydro-1H-imidazo[4,5-c]pyridine-2-carboxamido)-2′-methylbiphenyl-3-ylamino)-1,7-naphthyridin-3-yl)methyl)azetidine-3-carboxylic acid]
Cc1c(Nc2nccc3cc(CN4CC[C@@H](O)C4)cnc23)cccc1-c1cccc(NC(=O)c2cc(CN3CC[C@@H](C(=O)O)C3)cn(C)c2=O)c1Cl [Example 15, (R)-1-((5-(2-chloro-3′-(3-(((R)-3-hydroxypyrrolidin-1-yl)methyl)-1,7-naphthyridin-8-ylamino)-2′-methylbiphenyl-3-ylcarbamoyl)-1-methyl-6-oxo-1,6-dihydropyridin-3-yl)methyl)pyrrolidine-3-carboxylicacid]
Cn1cc(CN2CC[C@@H](O)C2)cc(C(=O)Nc2cccc(-c3cccc(Nc4nccc5cc(CN6CC(C(=O)O)C6)cnc45)c3Cl)c2Cl)c1=O [Example 16, (R)-1-((8-(2,2′-dichloro-3′-(5-((3-hydroxypyrrolidin-1-yl)methyl)-1-methyl-2-oxo-1,2-dihydropyridine-3-carboxamido)biphenyl-3-ylamino)-1,7-naphthyridin-3-yl)methyl)azetidine-3-carboxylic acid]
Cn1cc(CNCCO)cc(C(=O)Nc2cccc(-c3cccc(Nc4nccc5cc(CN6CC(C(=O)O)C6)cnc45)c3Cl)c2Cl)c1=O [Example 17, 1-((8-(2,2′-dichloro-3′-(5-((2-hydroxyethylamino)methyl)-1-methyl-2-oxo-1,2-dihydropyridine-3-carboxamido)biphenyl-3-ylamino)-1,7-naphthyridin-3-yl)methyl)azetidine-3-carboxylic acid]
Cn1cc(CNCC(C)(C)O)cc(C(=O)Nc2cccc(-c3cccc(Nc4nccc5cc(CN6CC(C(=O)O)C6)cnc45)c3Cl)c2Cl)c1=O [Example 18, 1-((8-(2,2′-dichloro-3′-(5-((2-hydroxy-2-methylpropylamino)methyl)-1-methyl-2-oxo-1,2-dihydropyridine-3-carboxamido)biphenyl-3-ylamino)-1,7-naphthyridin-3-yl)methyl)azetidine-3-carboxylicacid]
Cc1c(Nc2nccc3cc(CNCCO)cnc23)cccc1-c1cccc(Nc2nccc3cc(CNCCO)cnc23)c1C [Example 19, 2,2′-(((((2,2′-dimethyl-[1,1′-biphenyl]-3,3′-diyl)bis(azanediyl))bis(1,7-naphthyridine-8,3-diyl))bis(methylene))bis(azanediyl))bis(ethan-1-ol)]
Cc1c(Nc2nccc3cc(CN4CC[C@@H](O)C4)cnc23)cccc1-c1cccc(Nc2nccc3cc(CN4CC[C@@H](O)C4)cnc23)c1C [Example 20, (3R,3′R)-1,1′-((((2,2′-dimethyl-[1,1′-biphenyl]-3,3′-diyl)bis(azanediyl))bis(1,7-naphthyridine-8,3-diyl))bis(methylene))bis(pyrrolidin-3-ol)]
Cc1c(Nc2nccc3cc(CNCCO)cnc23)cccc1-c1cccc(Nc2nccc3cc(CN4CC[C@@H](O)C4)cnc23)c1C [Example 21, (R)-1-((8-(3′-(3-((2-hydroxyethylamino)methyl)-1,7-naphthyridin-8-ylamino)-2,2′-dimethylbiphenyl-3-ylamino)-1,7-naphthyridin-3-yl)methyl)pyrrolidin-3-ol]
O[C@@H]1CCN(Cc2cnc3c(Nc4cccc(-c5cccc(Nc6nccc7cc(CN8CC[C@@H](O)C8)cnc67)c5Cl)c4Cl)nccc3c2)C1 [Example 22, (3R,3′R)-1,1′-((((2,2′-dichloro-[1,1′-biphenyl]-3,3′-diyl)bis(azanediyl))bis(1,7-naphthyridine-8,3-diyl))bis(methylene))bis(pyrrolidin-3-ol)]
Cc1c(Nc2nccc3cc(CN4CC[C@@H](O)C4)cnc23)cccc1-c1cccc(Nc2ncnc3cc(CN4CC[C@@H](O)C4)cnc23)c1C [Example 23, (R)-1-((4-(3′-(3-(((R)-3-hydroxypyrrolidin-1-yl)methyl)-1,7-naphthyridin-8-ylamino)-2,2′-dimethylbiphenyl-3-ylamino)pyrido[3,2-d]pyrimidin-7-yl)methyl)pyrrolidin-3-ol]
Cc1c(Nc2nccc3cc(CN4CC[C@@H](O)C4)cnc23)cccc1-c1cccc(Nc2ncnc3cc(CNCCO)cnc23)c1C [Example 24, (R)-1-((8-(3′-(7-((2-hydroxyethylamino)methyl)pyrido[3,2-d]pyrimidin-4-ylamino)-2,2′-dimethylbiphenyl-3-ylamino)-1,7-naphthyridin-3-yl)methyl)pyrrolidin-3-ol]
Cc1c(Nc2nccc3cc(CN4CC[C@@H](O)C4)cnc23)cccc1-c1cccc(Nc2ncnc3cc(CN(C)CCO)cnc23)c1C [Example 25, (R)-1-((8-(3′-(7-(((2-hydroxyethyl)(methyl)amino)methyl)pyrido[3,2-d]pyrimidin-4-ylamino)-2,2′-dimethylbiphenyl-3-ylamino)-1,7-naphthyridin-3-yl)methyl)pyrrolidin-3-ol]
Cc1c(Nc2nccc3cc(CN4CC[C@@H](O)C4)cnc23)cccc1-c1cccc(Nc2nccc3cc(CN4CC[C@@H](C(=O)N(C)C)C4)cnc23)c1C [Example 26, (R)-1-((8-(3′-(3-(((R)-3-hydroxypyrrolidin-1-yl)methyl)-1,7-naphthyridin-8-ylamino)-2,2′-dimethylbiphenyl-3-ylamino)-1,7-naphthyridin-3-yl)methyl)-N,N-dimethylpyrrolidine-3-carboxamide]
Cc1c(Nc2nccc3cc(CN4CC[C@@H](O)C4)cnc23)cccc1-c1cccc(Nc2ncnc3cc(CNC[C@H](C)O)cnc23)c1C [Example 27, (R)-1-((8-(3′-(7-(((S)-2-hydroxypropylamino)methyl)pyrido[3,2-d]pyrimidin-4-ylamino)-2,2′-dimethylbiphenyl-3-ylamino)-1,7-naphthyridin-3-yl)methyl)pyrrolidin-3-ol]
Cc1c(NC(=O)c2cc(CN3CC[C@@H](O)C3)cn(C)c2=O)cccc1-c1cccc(Nc2nccc3cc(CN4CC[C@@H](C(=O)O)C4)cnc23)c1C [Example 28, (R)-1-((8-(3′-(5-(((R)-3-hydroxypyrrolidin-1-yl)methyl)-1-methyl-2-oxo-1,2-dihydropyridine-3-carboxamido)-2,2′-dimethylbiphenyl-3-ylamino)-1,7-naphthyridin-3-yl)methyl)pyrrolidine-3-carboxylic acid]
Cc1c(Nc2nccc3cc(CN4CC[C@@H](O)C4)cnc23)cccc1-c1cccc(Nc2ncnc3cc(CNC[C@@H](C)O)cnc23)c1C [Example 29, (R)-1-((8-(3′-(7-(((R)-2-hydroxypropylamino)methyl)pyrido[3,2-d]pyrimidin-4-ylamino)-2,2′-dimethylbiphenyl-3-ylamino)-1,7-naphthyridin-3-yl)methyl)pyrrolidin-3-ol]
Cc1c(Nc2nccc3cc(CN4CC[C@@H](O)C4)cnc23)cccc1-c1cccc(Nc2ncnc3cc(CNCC(C)(C)O)cnc23)c1C [Example 30, (R)-1-((8-(3′-(7-((2-hydroxy-2-methylpropylamino)methyl)pyrido[3,2-d]pyrimidin-4-ylamino)-2,2′-dimethylbiphenyl-3-ylamino)-1,7-naphthyridin-3-yl)methyl)pyrrolidin-3-ol]
Cc1c(Nc2nccc3cc(CN4CC[C@@H](C(=O)O)C4)cnc23)cccc1-c1cccc(NC(=O)c2nc3c(n2C)CCN(C)C3)c1Cl [Example 31, (R)-1-((8-(2′-chloro-3′-(1,5-dimethyl-4,5,6,7-tetrahydro-1H-imidazo[4,5-c]pyridine-2-carboxamido)-2-methylbiphenyl-3-ylamino)-1,7-naphthyridin-3-yl)methyl)pyrrolidine-3-carboxylic acid]
Cc1c(Nc2nccc3cc(CN4CC[C@H](O)C4)cnc23)cccc1-c1cccc(NC(=O)c2nc3c(n2C)CCN(C)C3)c1Cl [Example 32, (S)—N-(2-chloro-3′-(3-((3-hydroxypyrrolidin-1-yl)methyl)-1,7-naphthyridin-8-ylamino)-2′-methylbiphenyl-3-yl)-1,5-dimethyl-4,5,6,7-tetrahydro-1H-imidazo[4,5-c]pyridine-2-carboxamide]
